Source: the supplement of paper PMC12076712

Key:
Experiment in all cases: pIC50, kinobeads binding competition
Settings in all cases: cell material: Jurkat lysate
PHKG2 = biological target: T1, PHKG2 (UniProt P15735)
T1 sequence (whole entry): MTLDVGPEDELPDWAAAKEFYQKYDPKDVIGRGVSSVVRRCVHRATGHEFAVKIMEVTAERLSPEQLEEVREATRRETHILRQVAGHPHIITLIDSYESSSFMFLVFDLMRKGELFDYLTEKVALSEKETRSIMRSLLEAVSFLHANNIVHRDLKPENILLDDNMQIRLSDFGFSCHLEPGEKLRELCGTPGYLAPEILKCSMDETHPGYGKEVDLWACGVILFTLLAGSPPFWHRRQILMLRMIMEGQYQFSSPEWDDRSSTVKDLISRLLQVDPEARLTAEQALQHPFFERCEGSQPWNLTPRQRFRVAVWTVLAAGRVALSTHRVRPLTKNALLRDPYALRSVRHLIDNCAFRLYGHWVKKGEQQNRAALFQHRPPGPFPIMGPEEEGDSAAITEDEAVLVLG

RIPK3 = RIPK3 (UniProt Q9Y572)
Sequence of RIPK3 (Q9Y572 whole entry, looked up): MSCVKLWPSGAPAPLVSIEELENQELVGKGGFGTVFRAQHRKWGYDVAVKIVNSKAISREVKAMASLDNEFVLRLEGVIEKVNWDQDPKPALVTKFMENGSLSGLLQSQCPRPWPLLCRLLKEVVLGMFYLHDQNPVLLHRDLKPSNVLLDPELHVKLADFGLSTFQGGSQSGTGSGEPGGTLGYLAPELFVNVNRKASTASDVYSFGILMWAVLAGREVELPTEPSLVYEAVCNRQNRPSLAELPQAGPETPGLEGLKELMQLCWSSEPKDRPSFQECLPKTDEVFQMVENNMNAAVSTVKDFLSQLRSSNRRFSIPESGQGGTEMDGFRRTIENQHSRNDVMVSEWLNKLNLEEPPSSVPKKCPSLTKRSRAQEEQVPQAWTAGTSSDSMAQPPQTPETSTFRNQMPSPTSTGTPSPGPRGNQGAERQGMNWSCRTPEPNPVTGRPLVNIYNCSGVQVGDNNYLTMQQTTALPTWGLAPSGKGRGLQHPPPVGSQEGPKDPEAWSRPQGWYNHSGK

FER = FER (UniProt P16591)
Sequence of FER (P16591 whole entry, looked up): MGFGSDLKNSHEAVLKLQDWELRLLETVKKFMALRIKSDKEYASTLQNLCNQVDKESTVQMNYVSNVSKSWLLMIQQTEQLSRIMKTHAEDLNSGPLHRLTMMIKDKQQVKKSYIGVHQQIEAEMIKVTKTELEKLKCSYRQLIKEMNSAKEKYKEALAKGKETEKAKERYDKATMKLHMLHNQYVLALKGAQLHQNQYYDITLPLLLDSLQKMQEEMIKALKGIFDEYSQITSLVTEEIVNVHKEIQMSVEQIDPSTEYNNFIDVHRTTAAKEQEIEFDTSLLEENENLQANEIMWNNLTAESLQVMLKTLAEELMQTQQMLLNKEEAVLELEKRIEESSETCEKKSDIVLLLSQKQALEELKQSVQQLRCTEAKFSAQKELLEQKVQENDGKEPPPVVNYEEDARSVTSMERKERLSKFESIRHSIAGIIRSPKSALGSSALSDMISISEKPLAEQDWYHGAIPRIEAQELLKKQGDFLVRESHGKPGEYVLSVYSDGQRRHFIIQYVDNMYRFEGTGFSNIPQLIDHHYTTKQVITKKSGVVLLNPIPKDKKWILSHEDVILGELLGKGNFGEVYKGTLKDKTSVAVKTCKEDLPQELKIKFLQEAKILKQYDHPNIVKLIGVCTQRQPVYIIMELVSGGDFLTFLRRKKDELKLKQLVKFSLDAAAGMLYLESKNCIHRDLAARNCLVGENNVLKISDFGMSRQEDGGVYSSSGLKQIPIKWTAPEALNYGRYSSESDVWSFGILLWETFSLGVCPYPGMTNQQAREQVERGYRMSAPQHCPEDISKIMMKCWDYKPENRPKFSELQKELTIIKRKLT

CAMKK1 = CAMKK1 (UniProt Q8N5S9)
Sequence of CAMKK1 (Q8N5S9 whole entry, looked up): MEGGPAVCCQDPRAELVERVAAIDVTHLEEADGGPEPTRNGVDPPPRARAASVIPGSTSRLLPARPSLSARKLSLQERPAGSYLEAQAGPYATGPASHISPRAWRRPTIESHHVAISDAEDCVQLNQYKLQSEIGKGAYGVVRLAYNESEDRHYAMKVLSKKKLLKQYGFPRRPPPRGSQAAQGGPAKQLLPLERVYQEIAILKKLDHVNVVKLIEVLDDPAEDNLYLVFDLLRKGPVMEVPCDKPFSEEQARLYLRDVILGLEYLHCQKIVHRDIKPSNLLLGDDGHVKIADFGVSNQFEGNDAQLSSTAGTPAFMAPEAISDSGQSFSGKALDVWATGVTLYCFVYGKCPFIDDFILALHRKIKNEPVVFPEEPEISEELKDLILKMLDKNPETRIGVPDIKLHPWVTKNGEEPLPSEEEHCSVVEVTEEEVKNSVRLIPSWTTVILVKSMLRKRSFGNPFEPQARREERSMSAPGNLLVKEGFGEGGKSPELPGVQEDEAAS

BMPR1A = BMPR1A (UniProt P36894)
Sequence of BMPR1A (P36894 whole entry): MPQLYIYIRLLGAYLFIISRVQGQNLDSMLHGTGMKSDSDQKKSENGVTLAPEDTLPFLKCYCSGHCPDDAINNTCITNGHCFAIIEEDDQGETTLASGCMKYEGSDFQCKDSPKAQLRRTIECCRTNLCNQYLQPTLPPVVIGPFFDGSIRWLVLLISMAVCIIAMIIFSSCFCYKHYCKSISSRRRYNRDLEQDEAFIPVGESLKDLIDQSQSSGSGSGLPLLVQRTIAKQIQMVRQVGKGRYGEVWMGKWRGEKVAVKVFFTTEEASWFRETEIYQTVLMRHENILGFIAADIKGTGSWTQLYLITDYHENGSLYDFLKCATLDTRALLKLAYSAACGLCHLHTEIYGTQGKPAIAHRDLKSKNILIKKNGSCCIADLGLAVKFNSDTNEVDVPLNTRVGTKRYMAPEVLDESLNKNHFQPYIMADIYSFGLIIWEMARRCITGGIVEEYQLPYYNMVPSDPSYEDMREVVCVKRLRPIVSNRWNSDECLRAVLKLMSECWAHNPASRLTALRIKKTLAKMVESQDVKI

BMPR2 = biological target: T2, BMPR2 (UniProt Q13873)
T2 sequence (whole entry): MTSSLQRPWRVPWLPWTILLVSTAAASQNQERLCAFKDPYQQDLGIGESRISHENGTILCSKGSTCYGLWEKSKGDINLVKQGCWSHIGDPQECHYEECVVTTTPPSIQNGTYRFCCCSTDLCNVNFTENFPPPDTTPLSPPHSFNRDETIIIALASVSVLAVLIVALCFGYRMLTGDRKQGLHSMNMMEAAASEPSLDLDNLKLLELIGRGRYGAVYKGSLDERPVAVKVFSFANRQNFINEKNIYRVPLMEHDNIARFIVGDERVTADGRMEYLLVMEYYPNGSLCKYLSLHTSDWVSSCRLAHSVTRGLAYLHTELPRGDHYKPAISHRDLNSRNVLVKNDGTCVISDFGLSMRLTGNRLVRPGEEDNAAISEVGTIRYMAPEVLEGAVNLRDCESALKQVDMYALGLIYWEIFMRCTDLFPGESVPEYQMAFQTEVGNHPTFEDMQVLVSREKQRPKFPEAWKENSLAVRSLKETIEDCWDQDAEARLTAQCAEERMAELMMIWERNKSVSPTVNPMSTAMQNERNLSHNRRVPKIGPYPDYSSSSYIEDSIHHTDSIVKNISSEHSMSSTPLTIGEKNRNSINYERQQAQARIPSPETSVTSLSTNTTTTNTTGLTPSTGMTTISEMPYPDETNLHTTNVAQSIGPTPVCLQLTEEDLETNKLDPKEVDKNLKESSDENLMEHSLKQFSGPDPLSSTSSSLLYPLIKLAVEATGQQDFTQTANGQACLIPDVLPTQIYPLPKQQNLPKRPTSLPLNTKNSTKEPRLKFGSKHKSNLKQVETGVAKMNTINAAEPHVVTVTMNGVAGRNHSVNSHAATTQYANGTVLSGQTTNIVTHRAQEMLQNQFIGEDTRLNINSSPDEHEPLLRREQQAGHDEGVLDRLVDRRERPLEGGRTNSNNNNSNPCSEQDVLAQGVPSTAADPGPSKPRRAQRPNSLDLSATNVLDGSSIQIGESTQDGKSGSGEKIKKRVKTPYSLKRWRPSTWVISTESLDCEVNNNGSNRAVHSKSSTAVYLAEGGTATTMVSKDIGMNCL

UniProt O15530 = biological target: T3, UniProt O15530
T3 sequence (whole entry): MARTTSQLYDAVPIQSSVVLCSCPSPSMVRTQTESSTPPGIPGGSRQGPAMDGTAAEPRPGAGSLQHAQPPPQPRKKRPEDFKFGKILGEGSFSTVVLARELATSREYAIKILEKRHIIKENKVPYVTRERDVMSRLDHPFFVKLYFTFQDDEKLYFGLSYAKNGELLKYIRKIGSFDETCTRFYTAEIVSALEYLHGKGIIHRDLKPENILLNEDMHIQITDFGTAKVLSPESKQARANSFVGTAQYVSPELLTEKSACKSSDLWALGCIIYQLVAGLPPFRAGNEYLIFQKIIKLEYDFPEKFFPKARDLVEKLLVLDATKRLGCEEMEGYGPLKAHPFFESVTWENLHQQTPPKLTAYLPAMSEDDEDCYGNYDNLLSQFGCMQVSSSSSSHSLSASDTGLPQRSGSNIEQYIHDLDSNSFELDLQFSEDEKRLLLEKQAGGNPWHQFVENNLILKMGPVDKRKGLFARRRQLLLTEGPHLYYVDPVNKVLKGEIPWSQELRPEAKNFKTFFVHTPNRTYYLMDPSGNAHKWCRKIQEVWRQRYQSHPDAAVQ

PRKG2 = biological target: T4, PRKG2 (UniProt Q13237)
T4 sequence (whole entry): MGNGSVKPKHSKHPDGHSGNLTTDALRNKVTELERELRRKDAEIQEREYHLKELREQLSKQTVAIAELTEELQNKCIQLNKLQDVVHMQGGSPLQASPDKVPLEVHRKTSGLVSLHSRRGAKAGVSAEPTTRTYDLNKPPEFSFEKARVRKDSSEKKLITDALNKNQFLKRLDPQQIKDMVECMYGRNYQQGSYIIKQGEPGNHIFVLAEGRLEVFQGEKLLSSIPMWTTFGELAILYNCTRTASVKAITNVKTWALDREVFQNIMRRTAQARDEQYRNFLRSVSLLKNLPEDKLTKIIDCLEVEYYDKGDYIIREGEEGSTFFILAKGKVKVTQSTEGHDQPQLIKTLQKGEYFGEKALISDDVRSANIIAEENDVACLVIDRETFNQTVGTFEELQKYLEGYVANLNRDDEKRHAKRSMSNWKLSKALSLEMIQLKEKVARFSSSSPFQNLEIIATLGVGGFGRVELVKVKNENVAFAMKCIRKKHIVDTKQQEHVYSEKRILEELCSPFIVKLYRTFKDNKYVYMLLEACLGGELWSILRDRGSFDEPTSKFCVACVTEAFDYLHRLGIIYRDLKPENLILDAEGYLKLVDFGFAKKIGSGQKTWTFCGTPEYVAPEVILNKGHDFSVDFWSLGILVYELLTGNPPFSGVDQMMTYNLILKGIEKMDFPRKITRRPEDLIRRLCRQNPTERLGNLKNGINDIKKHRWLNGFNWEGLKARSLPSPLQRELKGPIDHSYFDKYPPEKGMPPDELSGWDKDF

UniProt Q9NSY1 = biological target: UniProt Q9NSY1
Sequence of UniProt Q9NSY1 (Q9NSY1 whole entry, looked up): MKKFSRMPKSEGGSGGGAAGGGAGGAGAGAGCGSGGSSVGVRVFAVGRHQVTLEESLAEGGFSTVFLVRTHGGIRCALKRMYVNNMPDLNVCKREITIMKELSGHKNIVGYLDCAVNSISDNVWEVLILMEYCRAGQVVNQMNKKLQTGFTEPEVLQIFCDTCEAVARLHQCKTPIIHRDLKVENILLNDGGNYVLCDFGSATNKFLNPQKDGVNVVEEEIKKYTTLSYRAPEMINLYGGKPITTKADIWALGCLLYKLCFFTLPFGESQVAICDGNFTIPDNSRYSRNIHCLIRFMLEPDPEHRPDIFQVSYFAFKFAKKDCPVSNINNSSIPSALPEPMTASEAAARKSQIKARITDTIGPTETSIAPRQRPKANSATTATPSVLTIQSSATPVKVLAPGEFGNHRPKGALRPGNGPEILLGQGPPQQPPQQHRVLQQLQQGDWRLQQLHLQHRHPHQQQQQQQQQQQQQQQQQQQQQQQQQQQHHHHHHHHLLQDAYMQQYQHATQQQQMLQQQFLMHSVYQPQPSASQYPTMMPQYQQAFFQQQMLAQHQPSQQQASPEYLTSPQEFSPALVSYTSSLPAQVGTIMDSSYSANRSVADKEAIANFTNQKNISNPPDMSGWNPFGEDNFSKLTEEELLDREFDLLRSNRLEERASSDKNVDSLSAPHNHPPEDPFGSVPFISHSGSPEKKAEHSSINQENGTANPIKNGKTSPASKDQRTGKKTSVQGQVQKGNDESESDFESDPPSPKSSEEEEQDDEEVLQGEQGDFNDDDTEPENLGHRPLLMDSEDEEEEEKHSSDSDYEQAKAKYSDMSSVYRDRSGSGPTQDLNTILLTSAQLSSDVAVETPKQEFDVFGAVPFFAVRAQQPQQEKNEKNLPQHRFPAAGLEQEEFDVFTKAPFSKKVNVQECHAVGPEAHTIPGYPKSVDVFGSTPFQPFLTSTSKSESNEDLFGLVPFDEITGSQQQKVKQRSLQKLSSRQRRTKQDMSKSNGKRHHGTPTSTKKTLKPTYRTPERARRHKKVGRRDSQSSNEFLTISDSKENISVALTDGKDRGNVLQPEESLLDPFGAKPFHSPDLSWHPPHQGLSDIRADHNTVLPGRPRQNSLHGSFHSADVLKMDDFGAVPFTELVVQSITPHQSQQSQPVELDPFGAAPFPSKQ

CCc1cnn2c(NCc3ccc[n+]([O-])c3)cc(N3CCCC[C@H]3CCO)nc12 [dinaciclib]
pIC50 (PHKG2): < 4.52 | pIC50 (RIPK3): < 4.52 | pIC50 (FER): < 4.52 | pIC50 (CAMKK1): 4.6 | pIC50 (BMPR1A): < 4.52 | pIC50 (BMPR2): < 4.52 | pIC50 (UniProt O15530): < 4.52 | pIC50 (PRKG2): < 4.52 | pIC50 (UniProt Q9NSY1): < 4.52
